What was measured:
[1] = tested on: PARP cleavage in Jurkat cells; test: Effect of Z-VD-fmk on PARP cleavage in antiFas-treated Jurkat cells (Example 24); type: cell-based, human
Method: Poly(ADP)ribose polymerase (PARP) was one of the first caspase-3 substrates identified and the cleavage of PARP is still considered to be a near-universal marker for caspase-3 activation and caspase-mediated apoptosis. The ability of an anti-apoptotic compound to block PARP cleavage is therefore a useful indicator of its ability to inhibit apoptosis. The potency of Z-VD-fmk in a PARP cleavage assay was tested using antiFas-treated Jurkat cells. 2×10^6 Jurkat cells were seeded in each well of a 6-well dish and pre-incubated with test compounds for 30 minutes. The cells were then challenged with 500 ng/mL of an agonistic antiFas antibody or PBS for 4 hours. The cells were then harvested, pelleted gently, washed two times with PBS and lysed in RIPA buffer. Aliquots of the lysate were analyzed by SDS-PAGE and the proteins were transferred to PVDF membranes for Western blotting. The primary antibody was a polyclonal antiPARP serum which cross-reacts with both full-length PARP and the caspase-3-generated cleavage product.

[2] = tested on: rat transient focal ischemia model; test: Rat transient focal ischemia model; type: in vivo; details: for reduction of cortical infarction: p<0.05
Description: (i) Preparative Surgery: Male Fischer-344 rats (Harlan Sprague Dawley, Calif.) weighing 200-240 g, were used. Animals were initially anesthetized with 3% halothane in a mixture of 30% oxygen and 70% air. Halothane level were reduced to 1.5% for maintenance of anesthesia throughout surgery. […] (b) Arterial catheter implantation: the femoral artery were cannulated to allow monitoring of the blood pressure, and other physiological conditions include pO2, pCO2, pH, glucose, hematocrite, during ischemia, initial drug administration, and the time of arterial reperfusion. Both arterial and venous catheters were exteriorized through the back of the animal, to allow free movement. (c) A PhysioTel Transmitter (Data Sciences International, Mich.) were implanted into the peritoneal cavity to remotely monitor the body temperature of the animals for 22 hours.
(ii) Physiological parameters: Core body temperature was maintained at 37.5° C. during surgery, using a YSI Reusable Temperature Probe (YSI Co. Inc., Yellow Spring, Ohio) connected to a YSI Temperature Control Unit (Model 73A, YSI Co. Inc., Ohio) and a Electric Heating Pad (Model 756, Sunbean-Oster Co. Inc., Hattiesburg, Miss.). Following ischemia, the PhysioTel Transmitter was activated and core body temperature was recorded every 5 minutes. Systemic blood pressure was monitored throughout surgery, during intravenous drug infusion (bolus), and 1, 2, 3, and 4 hours after the onset of ischemia. Other physiological conditions, including pO2, pCO2, pH, glucose, and hematocrite were examined at the time of arterial occlusion and reperfusion.
(iii) Transient focal ischemia model: Following preparative surgery, a ventral midline cervical incision was made to expose both CCAs. The right CCA was permanently ligated with 4-o silk ligature, while the left CCA was clamped with an atraumatic aneurysm clip. A 1-cm incision perpendicular to and bisecting a line between the lateral canthus of the right eye and the external auditory canal was made. The underlying temporalis muscle was excised and retracted and under direct visualization with the aid of a dissecting microscope (Model SZ-STB1, Olympus, Japan), the middle cerebral artery (MCA) was exposed through a 2 mm burr hole drilled 2-3 mm rostral to the fusion of the zygomatic arch and the squamosal bone. Drilling was done under a continuous irrigation of physiological saline. The dura was cut and retracted to expose the MCA in the rhinal fissure. A Codman micro-aneurysm clip (No. 1) was used to temporarily occlude the MCA as it crosses the rhinal fissure. […] The areas of cortical and subcortical infarction were measured blindly with imaging processing software, and the volume of infarction was calculated by adding up individual measures with known thickness. […]

CC(C)[C@H](NC(=O)OCc1ccccc1)C(=O)NC(CC(=O)O)C(=O)CF (stereo partly drawn) [Cbz-Val-Asp-CH2F, Z-Val-Asp-fmk]
inhibition of PARP cleavage ([1]; 50 nM, antiFas-treated Jurkat cells): still retains much of its inhibitory activity
inhibition of PARP cleavage ([1]; 250 nM, antiFas-treated Jurkat cells): completely inhibits
inhibition of PARP cleavage ([1]; 500 nM, antiFas-treated Jurkat cells): completely inhibits
potency as inhibitor of PARP cleavage in intact cells, fold relative to Z-VAD-fmk ([1]; Jurkat cells): at least 10 fold
IC50 ([1]; antiFas-treated Jurkat cells, read-out: IC50, inhibition of PARP cleavage (whole-cell apoptosis model)): < 50 nM
reduction of cortical infarction ([2]; Experiment 1: rat, 20 mg/kg IV bolus 10 minutes after onset of ischemia + 5 mg/kg/hr IV infusion for 6 h): 46%
reduction of cortical infarction ([2]; Experiment 2: rat, 20 mg/kg IV bolus 10 minutes after onset of ischemia + 5 mg/kg/hr IV infusion for 12 h): 57%
tolerability following acute IV dosing ([2]; rat): well tolerated
changes in blood pressure, blood gas, or temperature following drug administration ([2]; rat, 20 mg/kg IV bolus + 5 mg/kg/hr infusion): no changes

Reference: patent US6949516B2, “Dipeptide apoptosis inhibitors and the use thereof” (Cytovia, Inc., priority 1997, dated 2005)
